From PubChem BioAssay AID652194 (Johns Hopkins Ion Channel Center, 2013)
Activity calls are given as the source filed them.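 How the source made its calls: active means hERG flux cut by over 30% at some tested dose, with a fitted dose response curve; inactive means no hERG inhibition at any dose or no curve.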

Target: Voltage-gated inwardly rectifying potassium channel KCNH2 (Homo sapiens) (UniProt Q12809)
Test: off-target hERG block by TASK1 inhibitor candidates – FluxOR thallium flux, concentration-response, CHO cells, selectivity assay for TASK1 inhibitor project, SAR follow-up (AID 652194)
Conditions: hERG-expressing cells, FluxOR thallium flux fluorescence; at 30 µM (top of the series)

Chain of Voltage-gated inwardly rectifying potassium channel KCNH2 (Homo sapiens) (Q12809 whole entry, looked up): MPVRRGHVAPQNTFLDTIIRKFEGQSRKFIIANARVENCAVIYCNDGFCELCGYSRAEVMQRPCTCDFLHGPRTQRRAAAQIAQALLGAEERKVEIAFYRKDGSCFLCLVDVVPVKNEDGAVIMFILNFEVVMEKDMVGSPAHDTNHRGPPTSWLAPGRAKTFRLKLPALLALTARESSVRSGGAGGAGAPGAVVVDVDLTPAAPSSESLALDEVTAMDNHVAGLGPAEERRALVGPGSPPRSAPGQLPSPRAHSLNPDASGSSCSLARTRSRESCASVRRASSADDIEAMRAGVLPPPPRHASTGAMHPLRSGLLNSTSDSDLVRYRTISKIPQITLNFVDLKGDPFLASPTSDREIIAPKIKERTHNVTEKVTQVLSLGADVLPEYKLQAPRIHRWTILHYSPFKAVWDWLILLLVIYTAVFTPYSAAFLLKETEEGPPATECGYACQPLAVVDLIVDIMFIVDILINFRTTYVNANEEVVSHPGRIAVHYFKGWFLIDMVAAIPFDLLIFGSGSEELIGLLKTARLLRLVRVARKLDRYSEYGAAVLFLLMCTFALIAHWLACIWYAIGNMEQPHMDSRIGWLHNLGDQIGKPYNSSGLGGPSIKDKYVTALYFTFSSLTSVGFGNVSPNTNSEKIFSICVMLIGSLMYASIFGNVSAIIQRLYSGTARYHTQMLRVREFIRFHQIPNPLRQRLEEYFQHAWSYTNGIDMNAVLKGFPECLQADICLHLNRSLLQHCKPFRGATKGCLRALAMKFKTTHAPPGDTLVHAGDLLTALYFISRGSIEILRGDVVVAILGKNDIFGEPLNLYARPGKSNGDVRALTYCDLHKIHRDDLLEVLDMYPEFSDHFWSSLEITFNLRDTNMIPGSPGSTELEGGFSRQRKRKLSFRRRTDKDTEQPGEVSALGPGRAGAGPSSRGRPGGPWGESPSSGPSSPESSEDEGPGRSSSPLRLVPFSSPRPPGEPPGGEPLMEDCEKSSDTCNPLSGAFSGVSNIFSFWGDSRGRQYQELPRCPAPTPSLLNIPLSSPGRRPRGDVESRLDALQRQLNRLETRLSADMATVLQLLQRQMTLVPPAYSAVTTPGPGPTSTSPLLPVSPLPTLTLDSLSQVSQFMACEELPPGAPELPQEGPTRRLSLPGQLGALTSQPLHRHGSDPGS

CN(C)c1ccc(C(=O)Nc2cccc(NC(=O)c3ccccc3)c2)cc1
flux ratio, lower = inhibition: inactive

COc1cccc(C(=O)Nc2cccc(NC(=O)c3ccccc3)c2)c1
flux ratio, lower = inhibition: inactive

Cc1cccc(C(=O)Nc2cccc(NC(=O)c3cccs3)c2)c1
flux ratio, lower = inhibition: inactive

O=C(Nc1cccc(NC(=O)c2cccnc2)c1)c1ccccc1
flux ratio, lower = inhibition: inactive

CCOc1ccccc1NC(=O)c1cccc(C(=O)NC2CCCC2)c1
flux ratio, lower = inhibition: inactive

O=C(Nc1cccc(NC(=O)c2ccc(Cl)cc2)c1)c1ccccc1
flux ratio, lower = inhibition: inactive

CC(C)c1ccccc1C(=O)Nc1cccc(NC(=O)c2ccccc2OC(F)(F)F)c1
flux ratio, lower = inhibition: inactive

Cc1cccc(C(=O)Nc2cccc(NC(=O)C3CCCCC3)c2)c1
flux ratio, lower = inhibition: inactive

COc1c(F)cccc1C(=O)Nc1cccc(NC(=O)c2cccc(C)c2)c1
flux ratio, lower = inhibition: inactive

Cc1cccc(C(=O)Nc2cccc(NC(=O)c3cccc(F)c3)c2)c1
flux ratio, lower = inhibition: inactive

CCOc1ccccc1C(=O)Nc1cccc(NC(=O)c2cccc(C)c2)c1
flux ratio, lower = inhibition: inactive

CCOc1ccccc1NC(=O)c1cccc(NC(=O)c2cccc(C(F)(F)F)c2)c1
flux ratio, lower = inhibition: inactive

CCOc1ccccc1NC(=O)c1cccc(NC(=O)c2ccccc2)c1
flux ratio, lower = inhibition: inactive

COc1ccc(F)cc1C(=O)Nc1cccc(NC(=O)c2cccc(C)c2)c1
flux ratio, lower = inhibition: inactive

Cc1cccc(C(=O)Nc2cccc(NC(=O)c3ccccc3C)c2)c1
flux ratio, lower = inhibition: inactive

COc1ccccc1C(=O)Nc1cc(NC(=O)c2ccccc2C(C)C)ccc1F
flux ratio, lower = inhibition: inactive

CCOc1ccccc1NC(=O)c1cccc(NC(=O)c2ccc(Cl)cc2)c1
flux ratio, lower = inhibition: inactive

COc1cccc(OC)c1C(=O)Nc1cccc(NC(=O)c2cccc(C)c2)c1
flux ratio, lower = inhibition: inactive

Cc1cccc(C(=O)Nc2cccc(NC(=O)c3ccccc3OC(F)(F)F)c2)c1
flux ratio, lower = inhibition: inactive

O=C(Nc1cccc(NC(=O)c2cccc(Cl)c2)c1)c1ccccc1
flux ratio, lower = inhibition: inactive

COc1ccc(C(=O)Nc2cccc(NC(=O)c3cccc(C)c3)c2)cc1
flux ratio, lower = inhibition: inactive

O=C(Nc1cccc(NC(=O)c2ccco2)c1)c1ccccc1
flux ratio, lower = inhibition: inactive

Cc1cccc(C(=O)Nc2cccc(NC(=O)c3cccc(C(F)(F)F)c3)c2)c1
flux ratio, lower = inhibition: inactive

COc1ccccc1C(=O)Nc1cc(NC(=O)c2cccc(C)c2)ccc1F
flux ratio, lower = inhibition: inactive

O=C(Nc1cccc(NC(=O)C2CCCCC2)c1)c1ccccc1
flux ratio, lower = inhibition: inactive

Cc1cccc(C(=O)Nc2cccc(NC(=O)c3ccncc3)c2)c1
flux ratio, lower = inhibition: inactive

CCOc1ccccc1NC(=O)c1cccc(NC(=O)c2ccccc2C)c1
flux ratio, lower = inhibition: inactive

CC(C)(C)c1ccc(C(=O)Nc2cccc(NC(=O)c3ccccc3)c2)cc1
flux ratio, lower = inhibition: inactive

CCOc1ccccc1NC(=O)c1cccc(NC(=O)C2CCCO2)c1 (centres undefined)
flux ratio, lower = inhibition: inactive

O=C(Nc1cccc(NC(=O)c2ccsc2)c1)c1ccccc1
flux ratio, lower = inhibition: inactive

CCOc1ccccc1NC(=O)c1cccc(NC(=O)CC2CCCCC2)c1
flux ratio, lower = inhibition: inactive

O=C(Nc1cccc(NC(=O)c2ccccn2)c1)c1ccccc1
flux ratio, lower = inhibition: inactive

COc1ccccc1NC(=O)c1cccc(NC(=O)CC2CCCC2)c1
flux ratio, lower = inhibition: inactive

Cc1cccc(C(=O)Nc2cccc(C(=O)Nc3ccccc3)c2)c1
flux ratio, lower = inhibition: inactive
